Consider 1 compound from ChEMBL document CHEMBL1139100, “Discovery of anticonvulsant activity of abietic acid through application of linear discriminant analysis” (Bioorg Med Chem Lett, 2007).

The test system of series [1] is Mus musculus. Description: Anticonvulsant activity in Swiss mouse at 30 mg/kg, ip after 0.5 hrs by MES test. Set-up: dose 30 mg/kg. In kind it is functional, organism-based.
Series [2] has as its system Mus musculus. Briefly: Neurotoxicity against Swiss mouse at 100 mg/kg, ip after 4 hrs by rotarod test. It is filed as toxicity, organism-based. Set-up: dose 100 mg/kg, route intraperitoneal. As to conditions: in vivo. (Falling from the rotarod earlier than controls is read as motor impairment.)
The subject of series [3] is Mus musculus. Description: Anticonvulsant activity in Swiss mouse at 100 mg/kg, ip after 0.5 hrs by PTZ test. It is filed as functional, organism-based. Also noted: dose 100 mg/kg.
Series [4] has as its system Mus musculus. Description: Anticonvulsant activity in Swiss mouse at 30 mg/kg, po after 0.5 hrs by MES test. It is filed as functional, organism-based. Set-up: dose 30 mg/kg.
The subject of series [5] is Mus musculus. Description: Anticonvulsant activity in Swiss mouse at 100 mg/kg, po after 0.5 hrs by PTZ test. It is filed as functional, organism-based. Set-up: dose 100 mg/kg.
Series [6] has as its system Mus musculus. Briefly: Neurotoxicity against Swiss mouse at 30 mg/kg, po after 0.5 hrs by rotarod test. Also noted: dose 30 mg/kg, route oral. As to conditions: in vivo. In kind it is toxicity, organism-based.
Series [7] deals with Mus musculus. Briefly: Anticonvulsant activity in Swiss mouse at 100 mg/kg, ip after 4 hrs by MES test. It is filed as functional, organism-based. Set-up: dose 100 mg/kg.
Series [8] concerns Mus musculus. Description: Neurotoxicity against Swiss mouse at 100 mg/kg, ip after 0.5 hrs by rotarod test. It is filed as toxicity, organism-based. Set-up: dose 100 mg/kg, route intraperitoneal. As to conditions: in vivo.
Series [9] deals with Mus musculus. Description: Anticonvulsant activity in Swiss mouse at 30 mg/kg, ip after 4 hrs by MES test. It is filed as functional, organism-based. Set-up: dose 30 mg/kg.
The subject of series [10] is Mus musculus. Description: Neurotoxicity against Swiss mouse at 30 mg/kg, ip after 0.5 hrs by rotarod test. In kind it is toxicity, organism-based. Also noted: dose 30 mg/kg, route intraperitoneal. The conditions noted are these: in vivo.
For series [11], the system named is Mus musculus. Briefly: Anticonvulsant activity in Swiss mouse at 100 mg/kg, ip after 4 hrs by PTZ test. It is filed as functional, organism-based. Set-up: dose 100 mg/kg.
Series [12] deals with Mus musculus. Briefly: Anticonvulsant activity in Swiss mouse at 100 mg/kg, po after 0.5 hrs by MES test. In kind it is functional, organism-based. Also noted: dose 100 mg/kg.
Series [13] concerns Mus musculus. Briefly: Anticonvulsant activity in Swiss mouse at 30 mg/kg, ip after 0.5 hrs by PTZ test. In kind it is functional, organism-based. Set-up: dose 30 mg/kg.
Series [14] relates to Mus musculus. Briefly: Anticonvulsant activity in Swiss mouse at 100 mg/kg, po after 4 hrs by MES test. Also noted: dose 100 mg/kg. In kind it is functional, organism-based.
The subject of series [15] is Mus musculus. Briefly: Anticonvulsant activity in Swiss mouse at 30 mg/kg, po after 4 hrs by PTZ test. In kind it is functional, organism-based. Also noted: dose 30 mg/kg.
The test system of series [16] is Mus musculus. Briefly: Neurotoxicity against Swiss mouse at 30 mg/kg, ip after 4 hrs by rotarod test. It is filed as toxicity, organism-based. Also noted: dose 30 mg/kg, route intraperitoneal. The conditions noted are these: in vivo.
For series [17], the system named is Mus musculus. Briefly: Neurotoxicity against Swiss mouse at 100 mg/kg, po after 0.5 hrs by rotarod test. It is filed as toxicity, organism-based. Also noted: dose 100 mg/kg, route oral. The conditions noted are these: in vivo.
Series [18] relates to Mus musculus. Briefly: Anticonvulsant activity in Swiss mouse at 30 mg/kg, ip after 4 hrs by PTZ test. In kind it is functional, organism-based. Also noted: dose 30 mg/kg.
In series [19] the test system is Mus musculus. Briefly: Anticonvulsant activity in Swiss mouse at 30 mg/kg, po after 4 hrs by MES test. It is filed as functional, organism-based. Set-up: dose 30 mg/kg.
The subject of series [20] is Mus musculus. Description: Neurotoxicity against Swiss mouse at 100 mg/kg, po after 4 hrs by rotarod test. As to conditions: in vivo. Set-up: dose 100 mg/kg, route oral. In kind it is toxicity, organism-based.
Series [21] relates to Mus musculus. Briefly: Anticonvulsant activity in Swiss mouse at 30 mg/kg, po after 0.5 hrs by PTZ test. It is filed as functional, organism-based. Set-up: dose 30 mg/kg.
In series [22] the test system is Mus musculus. Description: Anticonvulsant activity in Swiss mouse at 100 mg/kg, po after 4 hrs by PTZ test. In kind it is functional, organism-based. Set-up: dose 100 mg/kg.
Series [23] has as its system Mus musculus. Description: Anticonvulsant activity in Swiss mouse at 100 mg/kg, ip after 0.5 hrs by MES test. It is filed as functional, organism-based. Also noted: dose 100 mg/kg.
The test system of series [24] is Mus musculus. Briefly: Neurotoxicity against Swiss mouse at 30 mg/kg, po after 4 hrs by rotarod test. As to conditions: in vivo. It is filed as toxicity, organism-based. Set-up: dose 30 mg/kg, route oral.

Calls of active or inactive are those of the source. No cut-off for these calls is given here.

Turning to `CC(C)C1=CC2=CC[C@@H]3[C@](C)(CCC[C@@]3(C)C(=O)O)[C@H]2CC1` [ABIETIC ACID], the outcome in the series with Mus musculus [1], in the series on Mus musculus [3], in the series on Mus musculus [4], with Mus musculus [5], with Mus musculus [11] and in the series on Mus musculus [12] was inactive. Besides, the outcome in the series with Mus musculus [13], with Mus musculus [15], with Mus musculus [18], with Mus musculus [21], with Mus musculus [22] and in the series with Mus musculus [23] was inactive. Moreover, the Activity result with Mus musculus [2], in the series with Mus musculus [6], in the series on Mus musculus [8], in the series with Mus musculus [10], in the series with Mus musculus [16] and with Mus musculus [17] was “Non-toxic” in each case. Also, the Activity entry with Mus musculus [20] and in the series on Mus musculus [24] was “Non-toxic” each time. Besides, the result in the series with Mus musculus [7], in the series on Mus musculus [9], with Mus musculus [14] and in the series with Mus musculus [19] was Active.
